The Bradley open melting point set (2014)
Values joined by “and” are separate entries in the source; they are usually repeats but may differ in a detail not shown here. Equal entries are not always repeated.

| SMILES | melting point |
| --- | --- |
| CC(O)c1c(F)c(F)c(F)c(F)c1F (stereo not given) [1-(pentafluorophenyl)ethanol] | 33 °C |
| O=C(/C=C/c1ccccc1)n1ccnc1 [1-(trans-cinnamoyl)imidazole] | 130 °C |
| C=CCNC(N)=S [1-Allylthiourea] | 71 °C |
| O=C(O)c1cccc2c1nnn2Cc1ccccc1 [1-Benzyl-1H-benzotriazole-4-carboxylic acid] | 221 °C |
| C=C(F)Cl [1-Chloro-1-fluoroethene] | -169 °C |
| ClCCOCCCl [1-Chloro-2-(2-chloroethoxy)ethane] | -47 °C |
| Cc1ccc(Cl)cc1 [1-Chloro-4-methylbenzene] | 7.5 °C |
| CCCCl [1-Chloropropane] | -122 °C |
| CCCCOCC [1-Ethoxybutane] | -103 °C |
| COc1ccc(Cl)c(Cl)c1Cl [1-Methoxy-2,3,4-trichlorobenzene] | 70 °C |
| Cc1ccccc1[N+](=O)[O-] [1-Methyl-2-nitrobenzene] | -10 °C |
| C=Cc1ccc(C)cc1 [1-Methyl-4-vinylbenzene] | -72.5 °C |
| Cn1cc([N+](=O)[O-])c(O)nc1=O [1-Methyl-5-nitropyrimidine-2,4(1H,3H)-dione] | 269 °C |
| CN1CCCC1=O [1-Methylpyrrolidin-2-one] | -23 °C |
| CC(=O)c1ccccc1 [1-Phenylethanone] | 19 °C |
| NCc1ccccc1 [1-Phenylmethanamine] | -46 °C |
| O=C1CCN(c2ccccc2)N1 [1-Phenylpyrazolidin-3-one] | 122 °C |
| CC(=O)NNC(N)=S [1-acetyl-3-thiosemicarbazide] | 167 °C |
| CC(=O)N1CCc2cc(Br)ccc21 [1-acetyl-5-bromoindoline] | 120 °C |
| OCC12CC3CC(CC(C3)C1)C2 [1-adamantanemethanol] | 117 °C |
| Nc1cccc2c1C(=O)c1ccccc1C2=O [1-aminoanthraquinone] | 254 °C |
| CCCCCCCN [1-aminoheptane] | -18 °C |

| SMILES | melting point |
| --- | --- |
| NC1CCc2ccccc21 (stereo not given) [1-aminoindane] | 2 °C |
| Nc1cccc2ccccc12 [1-aminonaphthalene] | 49 °C |
| CCCCCN [1-aminopentane] | -55 °C |
| Cc1c(C)c(C)c(Br)c(C)c1C [1-bromo-2,3,4,5,6-pentamethylbenzene] | 165 °C |
| Cc1cc(C)c(C)c(Br)c1C [1-bromo-2,3,5,6-tetramethylbenzene] | 60 °C |
| Clc1ccc(Br)c(Cl)c1 [1-bromo-2,4-dichlorobenzene] | 27 °C |
| COc1ccc(Br)c(OC)c1 [1-bromo-2,4-dimethoxybenzene] | 26 °C |
| CC(C)CBr [1-bromo-2-methylpropane] | -117 °C and -118 °C |
| Oc1ccc2ccccc2c1Br [1-bromo-2-naphthol] | 79 °C |
| CCc1ccc(Br)cc1 [1-bromo-4-ethylbenzene] | -43 °C |
| CC(C)(C)c1ccc(Br)cc1 [1-bromo-4-tert-butylbenzene] | 16 °C |
| CCCCCCCCCCBr [1-bromodecane] | -29 °C |
| CCCCCCCCCCCCBr [1-bromododecane] | -10 °C |
| Brc1cccc2ccccc12 [1-bromonaphthalene] [listing 1 of 2 here] | -1 °C |
| Brc1cccc2ccccc12 [1-bromonaphthalene] [listing 2 of 2 here] | -1 °C |
| CCCCCCCCBr [1-bromooctane] | -55 °C |
| Cc1ccn(C(N)=O)n1 [1-carbamoyl-3-methylpyrazole] | 148 °C |
| COc1cc(Cl)cc(OC)c1 [1-chloro-3,5-dimethoxybenzene] | 34 °C |
| Clc1ccc(I)cc1 [1-chloro-4-iodobenzene] | 55 °C |
| CCCCCCCCCCCCCl [1-chlorododecane] | -9 °C |
| Clc1cccc2ccccc12 [1-chloronaphthalene] | -8 °C |
| CCCCCCCCCl [1-chlorooctane] | -58 °C |

| SMILES | melting point |
| --- | --- |
| CCCCCCl [1-chloropentane] | -99 °C |
| C#CCCCCCCCC [1-decyne] | -44 °C |
| CCCCCCCCCCCCO [1-dodecanol] | 26 °C |
| C=CCCCCCCCCCCCCCCCCCC [1-eicosene] | 29 °C |
| CCc1ccc(-c2ccccc2)cc1 [1-ethyl-4-phenylbenzene] | 47 °C |
| CCN1CCNC(=O)C1=O [1-ethylpiperazine-2,3-dione] | 110 °C |
| O=[N+]([O-])c1ccc(F)cc1 [1-fluoro-4-nitrobenzene] | 23 °C |
| Fc1cccc2ccccc12 [1-fluoronaphthalene] | -10 °C |
| CCCCCCCS [1-heptanethiol] | -43 °C |
| C=CCCCCC [1-heptene] | -119 °C |
| C#CCCCC [1-hexyne] | -132 °C |
| CCCCCCCCI [1-iodooctane] | -44 °C |
| COc1ccc(Cl)c(Cl)c1Cl [1-methoxy-2,3,4-trichlorobenzene] | 70 °C |
| Cn1c(=O)ccc2ccccc21 [1-methyl-2-quinolinone] | 75 °C |
| Cc1cccc(C(C)(C)C)c1 [1-methyl-3-tert-butylbenzene] | -41 °C |
| CN1CCN(C2CCNCC2)CC1 [1-methyl-4-(4-piperidinyl)piperazine] | 55 °C |
| Cc1ccc(-c2ccccc2)cc1 [1-methyl-4-phenylbenzene] | 48 °C |
| Cn1c(C=O)nc2ccccc21 [1-methylbenzimidazole-2-carboxaldehyde] | 120 °C |
| Cc1cccc2c1-c1nc3ccccc3nc1-2 [1-methylbenzo[3,4]cyclobuta[1,2-b]quinoxaline] | 135 °C |
| OB(O)c1cccc2ccccc12 [1-naphthaleneboronic acid] | 207 °C |
| O=C(O)c1cccc2ccccc12 [1-naphthoic acid] | 161 °C |
| CC(=O)Oc1cccc2ccccc12 [1-naphthyl acetate] | 45 °C |

| SMILES | melting point |
| --- | --- |
| N#CCc1cccc2ccccc12 [1-naphthylacetonitrile] | 34 °C |
| C#CCCCCCCCCCCCCCCCCC [1-nonadecyne] | 33 °C |
| CCCCCCCCCN [1-nonylamine] | -1 °C |
| C#CCCCCCCC [1-nonyne] | -50 °C |
| CC(=O)O[C@H]1O[C@@H](COC(=O)c2ccccc2)[C@H](OC(=O)c2ccccc2)[C@@H]1OC(=O)c1ccccc1 [1-o-acetyl-2,3,5-tri-o-benzoyl-beta-D-ribofuranose] | 129 °C |
| CCCCCCCCCCCCCCCCCCS [1-octadecanethiol] | 32 °C |
| C=CCCCCCCCCCCCCCCCC [1-octadecene] | 18 °C |
| CCCCCCCCS [1-octanethiol] | -49 °C |
| C=CCCCCCCCCCCCCC [1-pentadecene] | -4 °C |
| C=CCCC [1-pentene] | -162 °C |
| CCCCCN [1-pentylamine] | -55 °C |
| C=CC [1-propene] | -185 °C |
| CC(C)(C)N1CCNC1=O [1-tert-butyl-2-imidazolidinone] | 137 °C |
| C=CCCCCCCCCCCCC [1-tetradecene] | -12 °C |
| CCCCCCCCCCCCCO [1-tridecanol] | 34 °C |
| C=CCCCCCCCCCCC [1-tridecene] | -23 °C |
| CCCCCCCCCCCO [1-undecanol] | 16 °C and 14 °C |
| C#CCCCCCCCCC [1-undecyne] | -25 °C |
| On1nnc2ccccc21 [1H-Benzotriazol-1-ol] | 159 °C |
| CC1=C(C)C(C)N=N1 (stereo not given) [1H-pyrazole, 3,4,5-trimethyl-] | 138 °C |
| CSC1N=NC(N)=C1C#N (stereo not given) [1H-pyrazole-4-carbonitrile, 3-amino-5-(methylthio)-] | 190 °C |
| c1ccc2[nH]nnc2c1 [1h-benzotriazole] | 98 °C |

| SMILES | melting point |
| --- | --- |
| CC(=O)N(C)c1ccc(Cl)cc1Cl [2',4'-dichloro-n-methylacetanilide] | 87 °C |
| COc1cc(/C=C/C(=O)c2ccccc2O)ccc1O [2',4-dihydroxy-3-methoxychalcone] | 128 °C |
| CC(=O)c1cc(Cl)ccc1Cl [2',5'-dichloroacetophenone] | 12 °C |
| O=c1ccn([C@@H]2C[C@H](O)[C@@H](CO)O2)c(=O)[nH]1 [2'-Deoxyuridine] | 163 °C |
| CC(=O)Nc1cc(C)ccc1O [2'-hydroxy-5'-methylacetanilide] | 149 °C |
| Nc1ccccc1CCc1ccccc1N [2,2'-Ethane-1,2-diyldianiline] | 33 °C |
| Oc1ccc(Cl)cc1Cc1cc(Cl)ccc1O [2,2'-Methylenebis(4-chlorophenol)] | 170 °C |
| Oc1ccccc1-c1ccccc1O [2,2'-dihydroxybiphenyl] | 109 °C |
| O=C(C(=O)c1cccs1)c1cccs1 [2,2'-thenil] | 83 °C |
| OC(c1ccc(Cl)cc1)(c1ccc(Cl)cc1)C(Cl)(Cl)Cl [2,2,2-Trichloro-1,1-bis(4-chlorophenyl)ethanol] | 78.5 °C |
| NC(=O)C(Cl)(Cl)Cl [2,2,2-Trichloroacetamide] | 142 °C |
| CC(C)C(O)C(C)(C)C (stereo not given) [2,2,4-trimethyl-3-pentanol] | -11 °C |
| OCC(c1ccccc1)c1ccccc1 [2,2-Diphenylethanol] | 54.5 °C |
| O=C(c1ccccc1)C(Cl)Cl [2,2-dichloroacetophenone] | 21 °C |
| CC(Br)C(C)(Br)Br (stereo not given) [2,3,3-tribromobutane] | 2 °C |
| OB(O)c1c(F)c(F)c(F)c(F)c1F [2,3,4,5,6-pentafluorobenzeneboronic acid] | 253 °C |
| O=C(c1ccccc1)c1c(F)c(F)c(F)c(F)c1F [2,3,4,5,6-pentafluorobenzophenone] | 38 °C |
| O=S(=O)(Cl)c1ccc(Cl)c(Cl)c1Cl [2,3,4-trichlorobenzenesulfonyl chloride] | 63 °C |
| O=Cc1ccc(O)c(O)c1O [2,3,4-trihydroxybenzaldehyde] | 161 °C |
| COc1ccc(B(O)O)c(OC)c1OC [2,3,4-trimethoxybenzeneboronic acid] | 77 °C |
| CC(C)C(C)C(C)C [2,3,4-trimethylpentane] | -109 °C |
| O=[N+]([O-])c1c(Cl)c(Cl)cc(Cl)c1Cl [2,3,5,6-Tetrachloronitrobenzene] | 99.5 °C |
